Data published in US10202379B2, “Substituted polycyclic carbamoyl pyridone derivative prodrug” (priority 2010, dated 2019).
Like-named read-outs stand apart in the source and are kept apart here.

Experiments:
[1] = target: Cap-dependant Endonuclease (CEN) (RNP fraction, PB1-PB2-PA complex) (Influenza A virus (strain A/Wilson-Smith/1933 H1N1) (Influenza A virus (strain A/WS/1933 H1N1)), UniProt P15659); assay type: biochemical, influenza A/WSN/33 virus
influenza virus = assay: microbe, parasite or virus in culture; assay type: cell-based; details: MDBK or MDCK cells, 3 days, WST-8
[2] = parent compounds (Reference examples), room temperature, 60 minutes
[3] = unidentified influenza virus, 72 h, read-out: CPE EC50, parent compounds (Reference examples)
[4] = parent compounds (Reference examples), read-out: CPE EC50

Row | SMILES | EC50 (influenza virus; [3]) [nM] | further results
1 | C[C@@H](N1CN([C@@H]2c3ccccc3SCc3c(Cl)cccc32)n2cc(CO)c(=O)c(O)c2C1=O)C(F)(F)F [compound 719] | 8.36 | IC50 [1, 2]: 2.6 nM
2 | Cc1cccc2c1SCc1ccccc1C2N1CN(C(C)C)C(=O)c2c(O)c(=O)ccn21 (stereo not drawn) [Reference example 356] | 20 | 
3 | C[C@H](N1CN([C@H]2c3ccc(F)cc3CSc3ccccc32)n2ccc(=O)c(O)c2C1=O)C(F)(F)F [Reference example 460] | 9 | 
4 | C[C@@H](N1CN([C@@H]2c3ccccc3CCc3c(Cl)cccc32)n2ccc(=O)c(O)c2C1=O)C(F)(F)F [Reference example 641] | 23 | IC50 [1, 2]: 46 nM
5 | C[C@@H](N1CN([C@H]2c3ccccc3CSc3ccc(F)cc32)n2ccc(=O)c(O)c2C1=O)C(F)(F)F [Reference example 448] | 8 | 
6 | CN1C(=O)c2c(O)c(=O)c(C(=O)O)cn2C[C@H]1C(c1ccccc1)c1ccccc1 [Example 43] | 1410 | 
7 | CCc1cccc2c1[C@H](N1CN([C@H](C)C(F)(F)F)C(=O)c3c(O)c(=O)ccn31)c1ccccc1SC2 [compound 731] | 2.08 | IC50 [1, 2]: 5.76 nM
8 | COCC(COC)N1CN(C2c3ccccc3CSc3c(F)cccc32)n2ccc(=O)c(O)c2C1=O (stereo not drawn) [Reference example 339] | 40 | 
9 | C[C@@H](N1CN([C@@H]2c3ccccc3CCc3c(F)cccc32)n2ccc(=O)c(O)c2C1=O)C(F)(F)F [Reference example 634] | 17 | IC50 [1, 2]: 103 nM
10 | C[C@@H](N1CN([C@H](c2ccccc2)c2ccccc2Cl)n2ccc(=O)c(O)c2C1=O)C(F)(F)F [Reference example 652] | 79 | IC50 [1, 2]: 330 nM
11 | CC(=O)OCCN1CN(C2c3ccccc3CSc3c(Cl)cccc32)n2ccc(=O)c(O)c2C1=O (stereo not drawn) [Reference example 359] | 80 | 
12 | C[C@@H](N1CN([C@H]2c3cc(F)ccc3CSc3c(F)cccc32)n2ccc(=O)c(O)c2C1=O)C(F)(F)F [Reference example 656] | 19 | IC50 [1, 2]: 70 nM
13 | O=C(O)c1cn2c(c(O)c1=O)C(=O)N1CCCO[C@H]1[C@@H]2C(c1ccccc1)c1ccccc1 [Example 175] | 102 | 
14 | O=C(NCCN1CN(C(c2ccccc2)c2ccccc2)n2ccc(=O)c(O)c2C1=O)c1ccccc1 [Example 150] | 553 | 
15 | O=C1c2c(O)c(=O)ccn2N(C2c3ccccc3CSc3ccccc32)CN1Cc1ncns1 (stereo not drawn) [Reference example 316] | 83 | IC50 [1, 2]: 69 nM
16 | COCCC(=O)Oc1c2n(ccc1=O)N([C@@H]1c3ccccc3SCc3c(Cl)cccc31)CN([C@H](C)C(F)(F)F)C2=O [Example 108] |  | IC50 [1]: 37 nM; EC50 (influenza virus; [4]): 19 nM
17 | C[C@@H](N1CN([C@@H]2c3ccccc3SCc3cccc(F)c32)n2ccc(=O)c(O)c2C1=O)C(F)(F)F [Reference example 456] | 4 | 
18 | CC(=O)c1cn2c(c(O)c1=O)C(=O)N([C@H](C)C(F)(F)F)CN2[C@H]1c2cc(F)c(F)cc2CSc2ccccc21 [compound 692] | 9.64 | IC50 [1, 2]: 36.9 nM
19 | CCN(CC)CCN1CN(C2c3ccccc3CCc3ccccc32)n2ccc(=O)c(O)c2C1=O [Reference example 490] | 468 | IC50 [1, 2]: 212 nM
20 | CC(C)C1N(CCO)C(=O)c2c(O)c(=O)ccn2N1C1c2ccccc2CCc2ccccc21 (stereo not drawn) [Reference example 553] | 30 | 
21 | Cc1cccc2c1CSc1c(C)cccc1[C@H]2N1CN([C@H](C)C(F)(F)F)C(=O)c2c(O)c(=O)ccn21 [Reference example 613] | 18 | IC50 [1]: 173 nM

Row | SMILES | EC50 (influenza virus; [3]) [nM] | further results
22 | C[C@@H](CO)N1CN(C2c3ccccc3CSc3ccccc32)n2ccc(=O)c(O)c2C1=O (stereo partly drawn) [Reference example 375] | 73 | IC50 [1, 2]: 37 nM
23 | C[C@@H](N1CN([C@H]2c3ccccc3CCc3cccc(F)c32)n2ccc(=O)c(O)c2C1=O)C(F)(F)F [Reference example 633] | 22 | IC50 [1, 2]: 53 nM
24 | C[C@@H](N1CN([C@@H]2c3ccccc3CSc3ccccc32)n2ccc(=O)c(O)c2C1=O)C(F)(F)F [Reference example 414] |  | EC50 (influenza virus; [4]): 131 nM
25 | Cc1nnc(CN2CN(C3c4ccccc4CCc4ccccc43)n3ccc(=O)c(O)c3C2=O)o1 [Reference example 256] | 400 | 
26 | COCCN1CN(C2c3ccccc3CSc3c(F)cccc32)n2ccc(=O)c(O)c2C1=O (stereo not drawn) [Reference example 336] | 70 | 
27 | C[C@@H](N1CN([C@@H]2c3ccccc3SCc3c(Br)cccc32)n2ccc(=O)c(O)c2C1=O)C(F)(F)F [Reference example 463] | 5 | 
28 | CC(C)N1CN(C2c3ccccc3CSc3cc(F)ccc32)n2ccc(=O)c(O)c2C1=O (stereo not drawn) [Reference example 352] | 20 | 
29 | COCC(COC)N1CN(C2c3ccccc3CCc3ccccc32)n2ccc(=O)c(O)c2C1=O [Reference example 272] | 30 | 
30 | COCCN1C[C@H](C(c2ccccc2)c2ccccc2)n2cc(N)c(=O)c(O)c2C1=O [Example 56] | 3860 | 
31 | C[C@@H](N1CN([C@H]2c3ccccc3CSc3c(F)cccc32)n2ccc(=O)c(O)c2C1=O)C(F)(F)F [Reference example 444] | 3 | 
32 | C[C@@H](N1CN([C@@H]2c3ccccc3SCc3c(Cl)cccc32)n2ccc(=O)c(O)c2C1=O)C(F)(F)F [Reference example 417] | 3 | 
33 | C[C@@H](N1CN([C@H]2c3ccc(F)cc3CSc3c(F)cccc32)n2ccc(=O)c(O)c2C1=O)C(F)(F)F [Reference example 470] | 3 | 
34 | COCCN1C[C@H](C(c2ccccc2)c2ccccc2)n2cc(Br)c(=O)c(O)c2C1=O [Example 63] | 2000 | 
35 | C[C@@H](N1CN([C@H]2c3ccccc3CCc3c(Cl)cccc32)n2ccc(=O)c(O)c2C1=O)C(F)(F)F [Reference example 639] | 17 | 
36 | C[C@@H](N1CN(C2c3ccccc3CSc3ccc(F)cc32)n2ccc(=O)c(O)c2C1=O)C(F)(F)F (stereo partly drawn) [Reference example 345] | 8 | 
37 | COCCN1CN(C(c2ccccc2)c2ccccc2)n2cc(C(=O)O)c(=O)c(O)c2C1=O [Example 94] | 1470 | 
38 | CC(=O)N(C)CC1N(C(C)C)C(=O)c2c(O)c(=O)ccn2N1C1c2ccccc2CCc2ccccc21 (stereo not drawn) [Reference example 525] | 90 | 
39 | C[C@@H](N1CN([C@H]2c3ccccc3CSc3c(C#N)cccc32)n2ccc(=O)c(O)c2C1=O)C(F)(F)F [Reference example 618] | 18 | 
40 | C[C@@H](N1CN([C@H]2c3cccc(F)c3CSc3c(F)cccc32)n2ccc(=O)c(O)c2C1=O)C(F)(F)F [Reference example 469] | 4 | 
41 | COCCN1CN(Cc2ccccc2-c2ccccc2)n2ccc(=O)c(O)c2C1=O [Example 99] | 2000 | 
42 | CCOC(=O)CCN1CN(C(c2ccccc2)c2ccccc2)n2ccc(=O)c(O)c2C1=O [Example 128] | 416 | 

Row | SMILES | EC50 (influenza virus; [3]) [nM] | further results
43 | O=C1c2c(O)c(=O)ccn2N([C@H]2c3ccccc3CSc3c(F)cccc32)CN1[C@H](CO)C(F)(F)F [Reference example 611] | 43 | 
44 | C[C@@H](N1CN([C@H]2c3cc(F)ccc3CSc3ccccc32)n2ccc(=O)c(O)c2C1=O)C(F)(F)F [Reference example 441] | 5 | 
45 | O=C1c2c(O)c(=O)ccn2N(C2c3ccccc3CCc3ccccc32)CN1Cc1ncns1 [Reference example 271] | 102 | 
46 | CCN(CC)CCC1N(C(C)C)C(=O)c2c(O)c(=O)ccn2N1C1c2ccccc2CCc2ccccc21 (stereo not drawn) [Reference example 538] | 30 | 
47 | COCCN1C[C@H](C(c2ccccc2)c2ccccc2)n2cc(CO)c(=O)c(O)c2C1=O [Example 48] | 10900 | 
48 | COCCN1CN(C2c3ccccc3COc3c(Cl)cccc32)n2ccc(=O)c(O)c2C1=O (stereo not drawn) [Reference example 396] | 60 | 
49 | CN(CCN1CN(C(c2ccccc2)c2ccccc2)n2ccc(=O)c(O)c2C1=O)S(=O)(=O)c1ccccc1 [Example 138] | 100 | 
50 | O=C1c2c(O)c(=O)ccn2N(C2c3ccccc3CSc3ccccc32)CN1C1CCC(F)(F)CC1 (stereo not drawn) [Reference example 313] | 50 | 
51 | O=C1c2c(O)c(=O)ccn2N(C2c3ccccc3CSc3c(Cl)cccc32)CN1[C@@H]1C[C@@H]1F (stereo partly drawn) [Reference example 332] | 20 | 
52 | COCCN1C[C@H](C(c2ccccc2)c2ccccc2)n2cc(OC)c(=O)c(O)c2C1=O [Example 62] | 1680 | 
53 | C[C@@H](N1CN([C@H]2c3cccc(C(F)(F)F)c3CSc3c(F)cccc32)n2ccc(=O)c(O)c2C1=O)C(F)(F)F [Reference example 660] | 11 | 
54 | Cc1cccc2c1CSc1c(Cl)cccc1[C@H]2N1CN([C@H](C)C(F)(F)F)C(=O)c2c(O)c(=O)ccn21 [Reference example 612] | 13 | 
55 | C[C@@H](N1CN(C(c2ccccc2)c2ccccc2Cl)n2ccc(=O)c(O)c2C1=O)C(F)(F)F (stereo partly drawn) [Reference example 243] | 20 | 
56 | C[C@H](CO)N1CN(C2c3ccccc3CSc3ccccc32)n2ccc(=O)c(O)c2C1=O (stereo partly drawn) [Reference example 373] | 50 | 
57 | C[C@@H](N1CN([C@H]2c3cc(Cl)ccc3CSc3ccccc32)n2ccc(=O)c(O)c2C1=O)C(F)(F)F [Reference example 443] | 4 | 
58 | C[C@@H](N1CN(C2c3ccccc3CSc3cc(F)ccc32)n2ccc(=O)c(O)c2C1=O)C(F)(F)F (stereo partly drawn) [Reference example 344] | 9 | 
59 | CN1CN(C2c3ccccc3CSc3cc(Cl)ccc32)n2ccc(=O)c(O)c2C1=O (stereo not drawn) [Reference example 348] | 80 | 
60 | C[C@@H](N1CN([C@H]2c3ccc(F)cc3CSc3ccccc32)n2ccc(=O)c(O)c2C1=O)C(F)(F)F [Reference example 454] | 4 | 
61 | CC(C)N1CN(C2c3ccccc3COc3c(F)cccc32)n2ccc(=O)c(O)c2C1=O (stereo not drawn) [Reference example 403] | 70 | 
62 | CC(C)N1CN(C2c3ccccc3CSc3c(Cl)cccc32)n2ccc(=O)c(O)c2C1=O (stereo not drawn) [Reference example 326] | 5 | 
